These results are taken from ChEMBL document CHEMBL1139785, “Synthesis of novel HIV protease inhibitors (PI) with activity against PI-resistant virus” (Bioorg Med Chem Lett, 2007).

Assay [1] has as its system Human immunodeficiency virus 1. Kind of assay: Antiviral activity against HIV1 NL4-3 in MT4 cells by viral spread assay. As to conditions: Human immunodeficiency virus 1, NL4-3, MT4; read-out: CIC95. The assay is classed as functional.
The subject of assay [2] is Human immunodeficiency virus 1. Kind of assay: Antiviral activity against HIV1 with protease V18C mutant in MT4 cells by viral spread assay. As to conditions: Human immunodeficiency virus 1, MT4; read-out: CIC95.
Assay [3] can be described thus: Inhibition of HIV1 NL4-3 protease K60C mutant. Details: species or system Human immunodeficiency virus 1.
Assay [4] relates to Human immunodeficiency virus 1. Put plainly: Antiviral activity against HIV1 with protease K60C mutant in MT4 cells by viral spread assay. As to conditions: Human immunodeficiency virus 1, MT4; read-out: CIC95.
Assay [5] addresses Protease (Human immunodeficiency virus 1, UniProt Q9YQ12). Kind of assay: Inhibition of wild type HIV1 NL4-3 protease.
Assay [6] is described as follows: Inhibition of HIV1 NL4-3 protease V18C mutant. Details: species or system Human immunodeficiency virus 1.

For orientation: IC50 means the midpoint of a concentration-inhibition curve. High values mean lower potency, low ones higher potency.

Sequence of Protease (Q9YQ12 whole entry): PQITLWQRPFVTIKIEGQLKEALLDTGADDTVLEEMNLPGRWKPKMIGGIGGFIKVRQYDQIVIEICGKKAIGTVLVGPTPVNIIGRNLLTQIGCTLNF

On to `O=C(N[C@H]1c2ccccc2OC[C@H]1O)[C@H](Cc1ccccc1)C[C@H](O)C(=O)N1COC2(CCCC2)[C@H]1C(=O)NCc1c(Cl)cccc1Cl`, for which the results for the IC95 in assay [1], in assay [2] and in assay [4] were 62.5 nM, 500 nM and 250 nM, respectively. For the same molecule, the figures for the IC50 in assay [3], in assay [5] and in assay [6] were 0.5 nM, 0.11 nM and 1 nM, respectively.

As for `Cc1nsc(C)c1CNC(=O)[C@H]1N(C(=O)[C@@H](O)C[C@@H](Cc2ccccc2)C(=O)N[C@H]2c3ccccc3OC[C@H]2O)COC12CCCC2`, the values for the IC95 in assay [1], in assay [2] and in assay [4] were 125 nM, 250 nM and 250 nM, respectively. Further, the IC50 in assay [3] was 0.4 nM; in assay [5] it was 0.1 nM; in assay [6], 0.8 nM.

In the case of `Cc1cccc(C)c1CNC(=O)[C@H]1N(C(=O)[C@@H](O)C[C@@H](Cc2ccccc2)C(=O)N[C@H]2c3ccccc3OC[C@H]2O)CSC1(C)C`, in assay [1], the IC95 was found to be 15 nM. This molecule also displayed an IC50 in assay [5] of 0.03 nM.

Regarding `Cc1cccc(C)c1CNC(=O)[C@H]1N(C(=O)[C@@H](O)C[C@@H](Cc2ccccc2)C(=O)N[C@H]2c3ccccc3OC[C@H]2O)CCC1(C)C`, the values for the IC95 in assay [1], in assay [2] and in assay [4] were 15 nM, 31 nM and 500 nM, respectively. In addition, the IC50 in assay [3] amounted to 1.6 nM; in assay [5], 0.14 nM; in assay [6], 0.4 nM.

For `Cc1cccc(C)c1CNC(=O)[C@@H]1CCCCN1C(=O)[C@@H](O)C[C@@H](Cc1ccccc1)C(=O)N[C@H]1c2ccccc2OC[C@H]1O`, the IC95 in assay [1] was 1000 nM. Also, the midpoint of inhibition in assay [5], the IC50, lay at 42 nM.

`Cc1cccc(C)c1CNC(=O)[C@H]1N(C(=O)[C@@H](O)C[C@@H](Cc2ccccc2)C(=O)N[C@H]2c3ccccc3OC[C@H]2O)COC1(C)C`: the IC95 in assay [1] is 15 nM; in assay [2], 62 nM; in assay [4], 500 nM. Further, the IC50 was 2.2 nM in assay [3], 0.17 nM in assay [5] and 1.3 nM in assay [6].

`Cc1cccc(C)c1CNC(=O)[C@@H]1CCN1C(=O)[C@@H](O)C[C@@H](Cc1ccccc1)C(=O)N[C@H]1c2ccccc2OC[C@H]1O`: in assay [1], the IC95 came out at 1000 nM. This molecule also displayed an IC50 in assay [5] of 90 nM.

As for `CC(C)(C)NC(=O)[C@@H]1CN(Cc2cccnc2)CCN1C[C@@H](O)CC(Cc1ccccc1)C(=O)N[C@H]1c2ccccc2C[C@H]1O` (single isomer, unassigned), the IC95 amounted to 45 nM in assay [1], 890 nM in assay [2] and 1000 nM in assay [4]. The IC50 in assay [3] amounted to 61 nM; in assay [6] it was 43.6 nM.

As to `Cc1cccc(C)c1CNC(=O)[C@H]1N(C(=O)[C@@H](O)C[C@@H](Cc2ccccc2)C(=O)N[C@H]2c3ccccc3OC[C@H]2O)COC12CCCC2`, the IC95 in assay [1] is 8 nM; in assay [2], 62 nM; in assay [4] it was 125 nM. The values for the IC50 in assay [5] and in assay [6] were 0.1 nM and 0.5 nM, respectively.

With `Cc1cccc(C)c1CNC(=O)[C@@H]1CCCN1C(=O)[C@@H](O)C[C@@H](Cc1ccccc1)C(=O)N[C@H]1c2ccccc2OC[C@H]1O`, the IC95 in assay [1] is 1000 nM. In assay [5], this molecule yielded an IC50 of 14 nM.

For the molecule `Cc1noc(C)c1CNC(=O)[C@H]1N(C(=O)[C@@H](O)C[C@@H](Cc2ccccc2)C(=O)N[C@H]2c3ccccc3OC[C@H]2O)COC12CCCC2`, the results for the IC95 in assay [1], in assay [2] and in assay [4] were 250 nM, 1000 nM and 500 nM, respectively. Further, the IC50 in assay [3] turned out to be 1.5 nM; in assay [5], 0.2 nM; in assay [6], 3.2 nM.
